# Source: the supplement of paper PMC10307832
# Compound: COc1cc(Nc2ncc(F)c(Nc3ccc4c(n3)NC(=O)C(C)(C)O4)n2)cc(OC)c1OC [R406] + COc1cccc2cc(-c3nc([C@H]4CC[C@H](C(=O)O)CC4)n4ncnc(N)c34)[nH]c12 [OSI-027] (partner 0.5 µM)
# Assay: relative viability (nuclei count vs DMSO), 5 days (fraction); higher = more cells survive
# Conditions: first compound 0.08 µM
# Summary of the method: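 Lung cancer cell lines in 1536-well plates were dosed by pin tool the day after seeding, either with one drug alone or with a fixed anchor-drug dose plus five library-drug doses (not always all listed) in √10 steps. After 5 days, cells were fixed and their nuclei stained in one step (final 0.05% Triton X-100, 1% formaldehyde, 1 ug/ml Hoechst), then counted on 4× images. Relative viability is the nuclei count in treated wells divided by that in vehicle wells. Values are medians of duplicate plates.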
row,Cell Line,relative viability
1,NCI-H522,0.681
2,NCI-H2342,0.536
3,NCI-H838,0.407
4,NCI-H1650,0.719
5,NCI-H1993,0.546
6,NCI-H441,0.528
7,PC-14,0.795
8,LCLC-103H,0.419
9,NCI-H596,0.793
10,NCI-H2126,0.624
11,EMC-BAC-2,0.373
12,NCI-H2085,0.863
13,HCC-366,0.938
14,NCI-H1666,0.829
15,NCI-H647,0.657
16,LK-2,0.218
17,NCI-H2087,0.44
18,NCI-H358,0.752
19,NCI-H2170,0.734
20,H3255,0.569
21,COR-L23,0.704
22,COR-L 105,0.659
23,LOU-NH91,0.728
24,ChaGo-K-1,0.606
25,NCI-H1793,0.251
26,NCI-H2405,0.658
27,NCI-H1623,0.408
28,NCI-H1563,0.736

# Same assay, conditions: first compound 0.253 µM
row,Cell Line,relative viability
1,NCI-H522,0.742
2,NCI-H2342,0.569
3,NCI-H838,0.472
4,NCI-H1650,0.644
5,NCI-H1993,0.521
6,NCI-H441,0.683
7,PC-14,1.11
8,LCLC-103H,0.453
9,NCI-H596,0.682
10,NCI-H2126,0.78
11,EMC-BAC-2,0.416
12,NCI-H2085,0.968
13,HCC-366,1.02
14,NCI-H1666,0.851
15,NCI-H647,0.504
16,LK-2,0.215
17,NCI-H2087,0.597
18,NCI-H358,0.678
19,NCI-H2170,0.654
20,COR-L23,0.794
21,COR-L 105,0.612
22,LOU-NH91,0.714
23,ChaGo-K-1,0.565
24,NCI-H1793,0.273
25,NCI-H2405,0.686
26,NCI-H1623,0.429
27,NCI-H1563,0.734

# Same assay, conditions: first compound 0.8 µM
row,Cell Line,relative viability
1,NCI-H522,0.954
2,NCI-H2342,0.653
3,NCI-H838,0.368
4,NCI-H1650,0.637
5,NCI-H1993,0.55
6,NCI-H441,0.574
7,PC-14,1.41
8,LCLC-103H,0.536
9,NCI-H596,0.903
10,NCI-H2126,0.661
11,EMC-BAC-2,0.407
